Experimental data: patent US12391712B2, “Phosphate derivatives of RORgamma modulators and uses thereof” (GENFIT, priority 2019, dated 2025)
In brackets after ≈: the same amount, converted by molar mass.

Tests used:
[1] = Solubility in phosphate buffer pH=7.4; type: physicochemical; settings: for solubility at 24 h: aqueous buffer, thermodynamic from solid; for fold more soluble compared to unphosphated analogue / Solubility ratio: phosphate buffer pH=7.4; for Solubility ratio: phosphate derivative / unphosphated counterpart
Experimental: General procedure: The test compound was solubilized in phosphate buffer pH=7.4 at a given concentration (test concentration). The mixture was maintained under vigorous stirring for 24 hours at room temperature. In case a insoluble solid appeared, it was removed by centrifugation and the concentration of the test compound in the solution was determined by LC-MS/MS using appropriate methods.

[2] = Metabolic stability (hydrolysis) in bronchoalveolar lavage fluid; type: in vitro ADME, human
Experimental: General procedure: human bronchoalveolar lavage fluid (hBALf) was purchased from BiolVT. Sample was collected from an individual donor. The only known information provided for the donor were age and gender. Information regarding the health status of the donor was not known.
The hydrolysis of compound 2 was tested at the concentration of 1 μM and 10 μM for 120 minutes (time points 5, 15, 30, 60 and 120 minutes). Quantification of the compound was then carried out by LC-MS/MS using appropriate methods.

[3] = Stability in water at room temperature; type: physicochemical; settings: 5 mg/mL in water
Experimental: General procedure: compound 2 (Cpd. 2) according to the invention was dissolved in water in order to obtain a 5 mg/mL concentration. The solution was stirred for 7 days at room temperature. Compound 2 was quantified at different time points (0, 5 days and 7 days) by UPLC/MS using appropriate method.
Results are expressed as percentage of initial signal area for Cpd.2 (time point (1-day).

[4] = phosphate buffer pH=7.4, stirring 24 hours at room temperature, LC-MS/MS

Which solubility at 24 h [1, 4] does the source give for Cc1ccc(C(NC(=O)C2(c3ccc4[nH]cc(CCOP(=O)([O-])[O-])c4c3)CC2)c2ccc(C)o2)c(C)c1.[Na+].[Na+] (centres unmarked) [Cpd.2, disodium 2-[5-(1-{[(2,4-dimethylphenyl)(5-methylfuran-2-yl)methyl]carbamoyl}cyclopropyl)-1H-indol-3-yl]ethyl phosphate] here?
Its solubility at 24 h is 143000 µg/mL.

What about the “fold more soluble compared to unphosphated analogue” value [1] of the same compound?
The value was “at least 1500 fold”.

And the Solubility ratio [1]?
Its Solubility ratio is 1 588.

And the “Cpd.2 quantification in hBALf, percentage of initial signal area” value ([2]; 1 μM, time point 0 min)?
The value was 100%.

What about the “Cpd.2 quantification in hBALf, percentage of initial signal area” value ([2]; 1 μM, time point 5 min) of the same compound?
The value was 16.46%.

What about the “Cpd.2 quantification in hBALf, percentage of initial signal area” value ([2]; 1 μM, time point 15 min) of the same compound?
Its value is 1.84%.

And the “Cpd.2 quantification in hBALf, percentage of initial signal area” value ([2]; 1 μM, time point 30 min)?
Its value is 0.57%.

What about the “Cpd.2 quantification in hBALf, percentage of initial signal area” value ([2]; 1 μM, time point 60 min) of the same compound?
The value was 0.28%.

What about the “Cpd.2 quantification in hBALf, percentage of initial signal area” value ([2]; 1 μM, time point 120 min) of the same compound?
Its value is 0.19%.

And the “Cpd.2 quantification in hBALf, percentage of initial signal area” value ([2]; 10 μM, time point 0 min)?
The value was 100%.

What about the “Cpd.2 quantification in hBALf, percentage of initial signal area” value ([2]; 10 μM, time point 5 min) of the same compound?
The value was 14.98%.

And the “Cpd.2 quantification in hBALf, percentage of initial signal area” value ([2]; 10 μM, time point 15 min)?
Its value is 4.27%.

What about the “Cpd.2 quantification in hBALf, percentage of initial signal area” value ([2]; 10 μM, time point 30 min) of the same compound?
Its value is 1.38%.

What about the “Cpd.2 quantification in hBALf, percentage of initial signal area” value ([2]; 10 μM, time point 60 min) of the same compound?
Its value is 0.49%.

What about the “Cpd.2 quantification in hBALf, percentage of initial signal area” value ([2]; 10 μM, time point 120 min) of the same compound?
Its value is 0.25%.

What about the “percentage of initial signal area for Cpd.2 (stability in water)” value (from here on “percentage … (stability in water)”) ([3]; time point 0 days) of the same compound?
Its value is 100%.

What about the “percentage … (stability in water)” value ([3]; time point 5 days) of the same compound?
Its value is 98%.

And the “percentage … (stability in water)” value ([3]; time point 7 days)?
The value was 98%.

For COc1cc(C)ccc1C(NC(=O)C1(c2ccc3[nH]cc(CCOP(=O)([O-])[O-])c3c2)CC1)c1ccccc1.[Na+].[Na+] (centres unmarked) [Cpd.4, disodium 2-[5-(1-{[(2-methoxy-4-methylphenyl)(phenyl)methyl]carbamoyl}cyclopropyl)-1H-indol-3-yl]ethyl phosphate], which solubility at 24 h [1, 4] is on record?
The solubility at 24 h was 11200 µg/mL.

What about the Solubility ratio [1] of the same compound?
The Solubility ratio was 7 000.

For Cc1ccc(C(NC(=O)C2(c3ccc4[nH]cc(CCOP(=O)(O)O)c4c3)CC2)c2cccc(C)n2)c(C)c1.[Na].[Na] (centres unmarked) [Cpd.6, disodium {2-[5-(1-{[(2,4-dimethyl phenyl)(6-methylpyridin-2-yl)methyl]carbamoyl}cyclopropyl)-1H-indol-3-yl]ethoxy} phosphonic acid], which solubility at 24 h [1, 4] is on record?
The solubility at 24 h was greater than 62700 µg/mL.

What about the Solubility ratio [1] of the same compound?
Its Solubility ratio is ≥12 000.

For Cc1ccc(C(NC(=O)C2(c3ccc4[nH]cc(CCOP(=O)([O-])[O-])c4c3)CC2)c2cccc(Cl)c2)c(C)c1.[Na+].[Na+] (centres unmarked) [Cpd.8, disodium 2-[5-(1-{[(3-chlorophenyl)(2,4-dimethylphenyl)methyl]carbamoyl}cyclopropyl)-1H-indol-3-yl]ethyl phosphate], which solubility at 24 h [1, 4] is on record?
The solubility at 24 h was greater than 10000 µg/mL.

And the “fold more soluble compared to unphosphated analogue” value [1]?
The value was “more than 100 000 fold”.

And the Solubility ratio [1]?
The Solubility ratio was ≥100 000.

Which results are given for COc1ccc(C(NC(=O)C2(c3ccc4[nH]cc(CCOP(=O)([O-])[O-])c4c3)CC2)c2ccccc2)c(C)c1.[Na+].[Na+] (centres unmarked) [Cpd.10, disodium 2-[5-(1-{[(4-methoxy-2-methylphenyl)(phenyl)methyl]carbamoyl}cyclopropyl)-1H-indol-3-yl]ethyl phosphate]?
solubility at 24 h [1, 4]: > 50400 µg/mL; Solubility ratio [1]: ≥13513

What does the source list for Cc1ccc(C(NC(=O)C2(c3ccc4[nH]cc(CCOP(=O)([O-])[O-])c4c3)CC2)C2CC2)c(C)c1.[Na+].[Na+] (centres unmarked) [Cpd.14, disodium 2-[5-(1-{[cyclopropyl(2,4-dimethylphenyl)methyl]carbamoyl}cyclopropyl)-1H-indol-3-yl]ethyl phosphate]?
solubility at 24 h [1, 4]: > 70800 µg/mL; Solubility ratio [1]: ≥5 949

For Cc1ccc(C(NC(=O)C2(c3ccc4[nH]cc(CCOP(=O)([O-])[O-])c4c3)CC2)c2ccccc2)c(N2CCOCC2)c1.[Na+].[Na+] (centres unmarked) [Cpd.16, disodium 2-{5-[1-({[4-methyl-2-(morpholin-4-yl)phenyl](phenyl)methyl}carbamoyl)cyclopropyl]-1H-indol-3-yl}ethyl phosphate], which solubility at 24 h [1, 4] is on record?
Its solubility at 24 h is 3640 µg/mL.

And the Solubility ratio [1]?
The Solubility ratio was 52 057.

What does the source list for Cc1noc(C)c1C(NC(=O)C1(c2ccc3[nH]cc(CCOP(=O)([O-])[O-])c3c2)CC1)c1ccccc1.[Na+].[Na+] (centres unmarked) [Cpd.18, disodium 2-[5-(1-{[(dimethyl-1,2-oxazol-4-yl) (phenyl)methyl]carbamoyl}cyclopropyl)-1H-indol-3-yl] ethyl phosphate]?
Solubility [1, 4]: >71350 µg/mL; Solubility ratio [1]: ≥911

With Cc1ccc(C(NC(=O)C2(c3ccc4[nH]cc(CCO)c4c3)CC2)c2ccc(C)o2)c(C)c1 (centres unmarked) [Cpd.A, N-[(2,4-dimethylphenyl)(5-methylfuran-2-yl)methyl]-1-[3-(2-hydroxyethyl)-1H-indol-5-yl]cyclopropane-1-carboxamide, reference compound] as the compound, how does the solubility at 24 h [1, 4] read?
The solubility at 24 h was 90 µg/mL (≈ 203 µM).

Which solubility at 24 h [1, 4] does the source give for COc1cc(C)ccc1C(NC(=O)C1(c2ccc3[nH]cc(CCO)c3c2)CC1)c1ccccc1 (centres unmarked) [Ex.2a, 1-[3-(2-hydroxyethyl)-1H-indol-5-yl]-N-[(2-methoxy-4-methylphenyl)(phenyl)methyl]cyclopropane-1-carboxamide] here?
The solubility at 24 h was 1.6 µg/mL (≈ 3.52 µM).

Which solubility at 24 h [1, 4] does the source give for Cc1ccc(C(NC(=O)C2(c3ccc4[nH]cc(CCO)c4c3)CC2)c2cccc(C)n2)c(C)c1 (centres unmarked) [Ex.3a, N-[(2,4-dimethylphenyl)(6-methylpyridin-2-yl)methyl]-1-[3-(2-hydroxyethyl)-1H-indol-5-yl]cyclo-propane-1-carboxamide] here?
The solubility at 24 h was 5.2 µg/mL (≈ 11.5 µM).

For Cc1ccc(C(NC(=O)C2(c3ccc4[nH]cc(CCO)c4c3)CC2)c2cccc(Cl)c2)c(C)c1 (centres unmarked) [Ex.4a, N-[(3-chlorophenyl)(2,4-dimethylphenyl)methyl]-1-[3-(2-hydroxyethyl)-1H-indol-5-yl]cyclopropane-1-carboxamide], which solubility at 24 h [1, 4] is on record?
The solubility at 24 h was 0.1 µg/mL (≈ 0.211 µM).

Which solubility at 24 h [1, 4] does the source give for COc1ccc(C(NC(=O)C2(c3ccc4[nH]cc(CCO)c4c3)CC2)c2ccccc2)c(C)c1 (centres unmarked) [Ex.5a, 1-[3-(2-hydroxyethyl)-1H-indol-5-yl]-N-[(4-methoxy-2-methylphenyl)(phenyl)methyl]cyclopropane-1-carboxamide] here?
The solubility at 24 h was 3.7 µg/mL (≈ 8.14 µM).

For Cc1ccc(C(NC(=O)C2(c3ccc4[nH]cc(CCO)c4c3)CC2)C2CC2)c(C)c1 (centres unmarked) [Ex.7a, N-[cyclopropyl(2,4-dimethylphenyl)methyl]-1-[3-(2-hydroxyethyl)-1H-indol-5-yl]cyclopropane-1-carboxamide], which solubility at 24 h [1, 4] is on record?
The solubility at 24 h was 11.9 µg/mL (≈ 29.6 µM).

For Cc1ccc(C(NC(=O)C2(c3ccc4[nH]cc(CCO)c4c3)CC2)c2ccccc2)c(N2CCOCC2)c1 (centres unmarked) [Ex.8a, 1-[3-(2-hydroxyethyl)-1H-indol-5-yl]-N-{[4-methyl-2-(morpholin-4-yl)phenyl](phenyl)methyl}cyclopropane-1-carboxamide], which solubility at 24 h [1, 4] is on record?
Its solubility at 24 h is 0.07 µg/mL (≈ 0.137 µM).

Which solubility at 24 h [1, 4] does the source give for Cc1noc(C)c1C(NC(=O)C1(c2ccc3[nH]cc(CCO)c3c2)CC1)c1ccccc1 (centres unmarked) [Ex.9d, N-[(dimethyl-1,2-oxazol-4-yl)(phenyl)methyl]-1-[3-(2-hydroxyethyl)-1H-indol-5-yl]cyclopropane-1-carboxamide] here?
Its solubility at 24 h is 78.3 µg/mL (≈ 182 µM).
